Source: patent US10640556B2, “Anti amphiregulin antibodies, compositions comprising same and uses thereof” (Yeda Research and Development Co. Ltd., priority 2015, dated 2020)

Legend:
promoter region of AREG [1] = experiment: AREG promoter luciferase reporter in A549 cells; assay type: cell-based, human; conditions: A549 lung cells, increasing concentrations of cisplatin, 48 hours
Experimental: (§1) FIGS. 5A-5B illustrate transcriptional activation of the AREG promoter by cisplatin. FIG. 5A is a graph illustrating the results of MLS cells transfected with a luciferase reporter containing the promoter region of AREG. Luciferase activity derived from the Renilla luciferase, was determined and normalized to that derived from the firefly luciferase reporter. Twenty-four hours after transfection, increasing concentrations of cisplatin were added and 48 hours later the cells were subjected to luciferase assay; and FIG. 5B illustrates the results of A549 lung cancer cells treated as in FIG. 5A. Averages of triplicates and S.D. values (bars) are presented (*P<0.03, **P<0.01, t-test). For promoter reporter assays, MLS and A549 cells were co-transfected with a Renilla luciferase plasmid containing the promoter region of AREG, TGF-alpha, a positive control of promoter activity, namely GAPDH, or a random control vector R01 used as a negative control (SwitchGear Genomics). Additionally, the pGL3-Control vector containing Firefly luciferase (Promega) was transfected as a control for transfection efficiency. Promoter activity was determined using the dual-luciferase reporter assay system according to the manufacturer's instructions (Promega). Renilla luciferase luminescence values were normalized to Firefly luminescence and quantified relative to control.

promoter region of AREG [2] = experiment: AREG promoter luciferase reporter in MLS cells; assay type: cell-based, human; conditions: MLS ovarian cells, increasing concentrations of cisplatin, 48 hours
Experimental: as §1

[3] = system: promoter region of TGF-alpha; experiment: TGF-alpha promoter luciferase reporter in MLS cells; assay type: cell-based, human; conditions: increasing concentrations of cisplatin, 24 hours
Experimental: FIGS. 5C-5F illustrate that AREG, unlike HB-EGF and TGF-alpha, undergoes up-regulation in response to a chemotherapeutic agent. FIG. 5C is a graph illustrating results of MLS cells transfected with a luciferase reporter containing the promoter region of TGF-alpha. The luciferase activity derived from the Renilla luciferase was normalized to that derived from the firefly luciferase (co-transfection control). Twenty-four hours after transfection, increasing concentrations of cisplatin were added, and 24 hours later the cells were subjected to luciferase assays; FIG. 5D is a graph illustrating assessment of GAPDH promoter activity as described in FIG. 5C; FIG. 5E is a graph illustrating the results of MLS ovarian cancer cells exposed to increasing concentrations of cisplatin. Cells were assessed for the secretion of the indicated ligands using ELISA; and FIG. 5F is a graph illustrating assessment of the A549 lung cancer cell line analyzed as in FIG. 5E. […] Promoter activity was determined using the dual-luciferase reporter assay system according to the manufacturer's instructions (Promega). Renilla luciferase luminescence values were normalized to Firefly luminescence and quantified relative to control.

MLS ovarian cancer cells = experiment: MLS ovarian tumor xenograft in nude mice; assay type: in vivo; conditions: MLS tumors, AR30 100 μg/mouse twice a week, cisplatin 5 mg/kg, FIG. 7B
Experimental: FIG. 7A, female nude mice (6 weeks old) were inoculated subcutaneously with MLS ovarian cancer cells (2×10^6 per animal). Once tumors became palpable, mice were randomized into two groups. Eleven mice were injected intraperitoneally with an anti-AREG mAb (AR30; 200 μg/mouse; twice a week, on days: 8, 11, 14, 17, and 21). The control group also included 11 mice. Shown are means±S.D. values; FIG. 7B, female nude mice (6 weeks old) were inoculated subcutaneously with MLS ovarian cancer cells (2×10^6 per animal). Once tumors became palpable, mice were randomized into four groups. One group (8 mice) was injected intraperitoneally with the AR30 mAb (100 μg/mouse twice a week, on days: 8, 14, 17, 21, 24 and 28). Another group (8 mice) was treated with cisplatin (5 mg/kg; on days 8 and 21). The fourth group was treated with a combination of mAb AR30 and cisplatin. The control group included 12 mice; and FIG. 7C, the indicated MLS tumors were excised, and their average weights determined. Representative tumors were photographed.
All animal procedures were approved by the Weizmann Institute of Science's review board. Female athymic NCr-nude mice (6 weeks old) were inoculated subcutaneously with 2×10^6 human ovarian MLS cancer cells. Once tumors became palpable (5-7 days), the mice were randomized into groups and injected intraperitoneally at the indicated time points with the indicated monoclonal antibodies, chemotherapy or the combination. Tumor volumes were monitored twice a week, and body weights were measured once a week.

Caspase-3 = Caspase-3 cleavage immunoblot in OVCAR5 cells; assay type: cell-based, human; conditions: cisplatin 5 μg/mL overnight as positive control
Experimental: FIGS. 4A-4D illustrate that depletion of AREG expression inhibits tumorigenic growth of human ovarian cancer cells. FIG. 4A is a graph illustrating results of OVCAR5 ovarian cancer cells treated with lentiviral expression constructs, either a scrambled shRNA or an AREG-specific shRNA. Conditioned media were collected three days later and the levels of secreted AREG were assessed using ELISA; FIG. 4B is a graph illustrating the growth rates of shAREG or shControl OVCAR5 cells measured using the MTT assay. Shown are means±S.D. values of hexaplicates (*P<0.005, t-test); FIG. 4C is a photograph illustrating Caspase-3 cleavage as assessed using immunoblotting and OVCAR5 sub-lines stably expressing three different shAREGs, or shControl. The assay was performed either in full medium or under serum starvation. Overnight treatment with cisplatin (5 μg/mL) was used as a positive control. […] Female nude mice (6 weeks old; 10 per group) were inoculated subcutaneously with OVCAR5 ovarian cells (3×10^6 per animal) pre-treated with either a scrambled shRNA or the AREG-specific shRNA. Tumor volumes were measured as indicated. Data points are presented as mean volume±S.D. values (*P<0.005, t-test).

[4] = system: MLS ovarian cancer cells and A549 lung cancer cells; experiment: ELISA of ligand secretion by MLS and A549 cells; assay type: cell-based, human; conditions: ovarian (MLS) and lung (A549) cancer cells exposed to cisplatin
Experimental: FIGS. 5C-5F illustrate that AREG, unlike HB-EGF and TGF-alpha, undergoes up-regulation in response to a chemotherapeutic agent. FIG. 5C is a graph illustrating results of MLS cells transfected with a luciferase reporter containing the promoter region of TGF-alpha. The luciferase activity derived from the Renilla luciferase was normalized to that derived from the firefly luciferase (co-transfection control). Twenty-four hours after transfection, increasing concentrations of cisplatin were added, and 24 hours later the cells were subjected to luciferase assays; FIG. 5D is a graph illustrating assessment of GAPDH promoter activity as described in FIG. 5C; FIG. 5E is a graph illustrating the results of MLS ovarian cancer cells exposed to increasing concentrations of cisplatin. Cells were assessed for the secretion of the indicated ligands using ELISA; and FIG. 5F is a graph illustrating assessment of the A549 lung cancer cell line analyzed as in FIG. 5E. Human cancer cell lines were seeded in 10 cm plates, covered with medium (6 mL) and incubated for 4 days. The supernatants were collected and centrifuged at 1200 rpm for 5 minutes.

For `N.N.[Cl][Pt][Cl]` [cisplatin], the “increase in AREG promoter reporter activity” value (promoter region of AREG [1]) was 1.5 fold, the “increase in AREG promoter reporter activity” value (promoter region of AREG [2]) was 2 fold and the “TGF-alpha promoter reporter activity” value [3] was “no consistent, cisplatin-induced changes in TGF-alpha induction”. For the same compound, the tumor growth (MLS ovarian cancer cells) was “only mildly inhibited”, the Caspase-3 cleavage (Caspase-3) was “cleaved only in cells incubated for 12 hours in the presence of cisplatin” and the “secretion of EGF-family ligands to the medium” value [4] was “increased secretion of AREG, not EGF, TGF-alpha or HB-EGF”.
